The target in data set [1] is human recombinant EP4 receptor (Homo sapiens, UniProt P35408). Description: [3H]-PGE2 specific binding on human recombinant EP4 receptor (HEK293 membranes). The protocol:
Cell membranes were prepared from HEK293 cell line (Human Embryonic Kidney 293) stably overexpressing human recombinant EP4 receptor. Cells grow adherent in DMEM with Glutamax | containing 10% FBS at 37° C. with 5% CO2. For membranes preparation, culture medium was aspirated from 150 cm^2 flasks in which cells were seeded. Cell monolayers were washed with 10 ml of hypotonic lysis buffer (TRIS 5 mM+EDTA 5 mM-pH 7.4), then cells were detached and lysed with the same buffer and by mechanical scraping. Lysates were centrifuged at 40000×g at 4° C. for 22 min. Pellets were stored at −80° C. until the use.
[3H]-Prostaglandin E2 ([3H]-PGE2) binding assays were performed in 10 mM MES-KOH buffer pH6, containing 10 mM MgCl2 and 1 mM CaCl2. Ten microgram of protein from membrane fractions are incubated in a total volume of 0.1 ml with 1 nM [3H]-PGE2. In order to determine the total binding or the non specific binding, 1% DMSO or 1 μM PGE2 were added to reaction mixtures, respectively. The specific binding represented >85% of total binding. In competition curves, the diluent was substituted by the test compounds (8 concentration spanning at least 2 order of magnitude; points in duplicates). In an independent series of experiments, competition curves of the same compounds were performed in the presence of Bovine Serum Albumin 0.5%. Incubation was carried out in a 96 multiwell plate for 90 min at room temperature, prior to separation of the bound and free radioligand by rapid filtration on glass fiber filters (Unifilter GFB96, PerkinElmer Inc) pre-soaked in 0.3% polyethyleneimine. Filters were washed with ice cold buffer pH 7.4 (50 mM HEPES, NaCl 500 mM, BSA 0.1%), dried for 30 minutes at 30° C. and then 0.1 ml of MICROSCINT-20 (PerkinElmer Inc) were added. The residual [3H]-PGE2 binding was determined by solid scintillation counter (TopCount, PerkinElmer Inc), after at least 1 hour of stabilization. Results of the competition curves were expressed as IC50 and the corresponding Ki were calculated according to the Chang-Prousoff equation. Finally the Ki value was transformed in pKi (the negative log of Ki).

For data set [2], the system named is PGE2 effect on TNF-α release in rat whole blood culture. The data set is described as follows: In vitro TNF-α release induced by LPS and modulated by PGE2, rat whole blood culture. The format is cell-based. The settings on record: 0.1 μg/ml LPS + fixed PGE2 concentration giving about 80% inhibition, 4 hours, read-out: IC50, reversal of PGE2 effect on TNF-α release. The protocol:
Male Wistar Han rats (250-300 g b.w., Charles River, Italy) were housed six per cage in a temperature-controlled room, set to maintain temperature within the range of 20° C. #2° C. and relative humidity within the range of 55%±10 and with a 12-h/12-h light/dark cycle. Throughout the study animals had free access to standard laboratory chow (Teklad rodent diet 2018, Harlan Laboratories, S. Pietro al Natisone, UD, Italy) and drinking water. Care and handling of the animals were in accordance with the guidelines of the Local Government and the regulations of the European Community. Authorization for experimental procedures was granted by the Italian Ministry of Health. The day of the experiments animals were anaesthetized with 2.5-3% isoflurane in O2 inside an induction chamber and blood was drawn from the abdominal aorta. Whole blood samples were collected in tubes containing 0.1-0.2U/ml heparin. […]
In samples representing basal release of the cytokine, LPS was substituted by the same volume of sterile PBS. […] The levels of TNF-α release in rat whole blood culture were evaluated using the Rat TNFalpha ELISA kit (Diaclone, France). Compared to the reference standard curve, TNF-α levels in samples were expressed as concentration (pg/ml).

The subject of another data set is CT26 cancer cell tumours. The data set is described as follows: CT26 syngeneic model of mouse colorectal cancer in Balb/c mice. The format is in vivo. The conditions noted are these: compounds 30 mg/kg oral daily day 7-23; anti PD-1 i.p. 20 mg/kg day 8, 10 mg/kg days 13, 19, 22. The protocol:
Male Balb/c mice 4-6 weeks old were housed five per cage in a temperature and humidity controlled room with a 12h/12h light/dark cycle. Throughout the experiment the animals had free access to food and water. The Balb/c mice were randomly divided into 6 groups (n=15 in each group): vehicle, Compound 1, Compound 2, anti PD-1, Compound 1+anti PD-1, Compound 2+anti PD-1 group.
CT26 cells were purchased from ATCC and cultured in Dulbecco's Modified Eagle's Medium (DMEM; ThermoFisher Scientific) supplemented with 10% fetal bovine serum (FBS; Sigma Aldrich) at 37° C. in an incubator with 5% CO2. Cells were sub-cultured twice a week until the number of cells needed for inoculation was obtained.
On the day of transplantation (day 0) logarithmic growing phase cells were harvested, diluted in PBS and 10^6 cells in 0.2 ml of PBS were subcutaneously inoculated into the lateral abdominal region of each mouse using a 26G syringe.
On day 7 after inoculation the mice were randomized into the 6 treatment groups each of 15 animals receiving respectively vehicle, Compound 1, Compound 2, anti PD-1 and the combination therapies. […]
Tumour sizes (mm^3) were evaluated twice a week by using a digital caliper. The tumour volumes were calculated measuring the tumour lengths along the major and minor axis and using the formula: Volume=[[…]]/2.

Another data set in a line: PK experiments in rat. The settings on record: in vivo, po.

Sequence of human recombinant EP4 receptor (P35408 whole entry): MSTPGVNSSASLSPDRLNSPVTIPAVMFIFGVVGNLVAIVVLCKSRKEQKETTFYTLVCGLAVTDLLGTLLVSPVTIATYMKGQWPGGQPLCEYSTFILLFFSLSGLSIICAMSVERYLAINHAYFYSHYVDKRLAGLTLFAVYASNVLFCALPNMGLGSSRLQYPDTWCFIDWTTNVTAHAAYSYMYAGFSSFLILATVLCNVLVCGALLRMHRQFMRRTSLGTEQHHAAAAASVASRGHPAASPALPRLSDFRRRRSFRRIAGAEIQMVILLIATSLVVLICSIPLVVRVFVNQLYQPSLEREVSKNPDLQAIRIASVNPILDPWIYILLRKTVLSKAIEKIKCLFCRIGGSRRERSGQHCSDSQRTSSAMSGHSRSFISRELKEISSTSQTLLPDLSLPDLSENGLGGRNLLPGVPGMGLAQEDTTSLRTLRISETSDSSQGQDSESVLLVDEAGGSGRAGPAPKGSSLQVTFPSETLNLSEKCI

As for `O=C([O-])c1ccc(C2(NC(=O)[C@H]3CC4(CCN3Cc3ccc(C(F)(F)F)cc3)CC4)CC2)cc1.[Na+]` [Compound 1, sodium (R)-4-(1-(6-(4-(trifluoromethyl)benzyl)-6-azaspiro[2.5]octane-5-carboxamido)cyclopropyl)benzoate], the results for the Ki in data set [1] (BSA 0.5%) and in data set [1] (None (absence of BSA)) were 25.1 nM and 12.6 nM, respectively. Besides, the IC50 in data set [2] turned out to be 2300 nM. The “effect on tumour growth (tumour volume)” value in the data set on CT26 cancer cell tumours is listed as “mild inhibitory effect on cancer growth starting at the second week of treatment”. Besides, the Tmax in “PK experiments in rat” amounted to 1 h.

The values are drawn from US12544365B2, “Pharmaceutical combination of an EP4 antagonist and immune checkpoint inhibitors for the treatment of tumours” (ROTTAPHARM BIOTECH S.R.L., priority 2019, dated 2026).
